# According to the NIST ThermoML archive (doi:10.1016/j.jct.2012.10.004):
# Numbers after ± are expanded uncertainties.
# Conditions: Liquid, Vibrating tube method
compound,measurement,setting,value
CCCC[N+]1(C)CCCC1.O=S(=O)([N-]S(=O)(=O)C(F)(F)F)C(F)(F)F,mass density,"278.15 K, 100 kPa",1415.1 ± 1.4 kg/m3
same,mass density,"278.15 K, 1000 kPa",1415.7 ± 1.4 kg/m3
same,mass density,"278.15 K, 10000 kPa",1421.5 ± 1.4 kg/m3
same,mass density,"278.15 K, 20000 kPa",1428 ± 1.5 kg/m3
same,mass density,"278.15 K, 40000 kPa",1439.8 ± 1.6 kg/m3
same,mass density,"278.15 K, 60000 kPa",1450.6 ± 1.8 kg/m3
same,mass density,"278.15 K, 80000 kPa",1460.8 ± 2.1 kg/m3
same,mass density,"278.15 K, 100000 kPa",1470.2 ± 2.3 kg/m3
same,mass density,"278.15 K, 120000 kPa",1479.1 ± 2.6 kg/m3
same,mass density,"298.15 K, 100 kPa",1395.2 ± 1.4 kg/m3
same,mass density,"298.15 K, 1000 kPa",1395.8 ± 1.4 kg/m3
same,mass density,"298.15 K, 10000 kPa",1401.8 ± 1.4 kg/m3
same,mass density,"298.15 K, 20000 kPa",1408.4 ± 1.5 kg/m3
same,mass density,"298.15 K, 40000 kPa",1420.7 ± 1.6 kg/m3
same,mass density,"298.15 K, 60000 kPa",1432.2 ± 1.8 kg/m3
same,mass density,"298.15 K, 80000 kPa",1442.8 ± 2 kg/m3
same,mass density,"298.15 K, 100000 kPa",1452.9 ± 2.3 kg/m3
same,mass density,"298.15 K, 120000 kPa",1462.9 ± 2.6 kg/m3
same,mass density,"313.15 K, 100 kPa",1381.6 ± 1.4 kg/m3
same,mass density,"313.15 K, 1000 kPa",1382.3 ± 1.4 kg/m3
same,mass density,"313.15 K, 10000 kPa",1388.8 ± 1.4 kg/m3
same,mass density,"313.15 K, 20000 kPa",1395.8 ± 1.5 kg/m3
same,mass density,"313.15 K, 40000 kPa",1408.7 ± 1.6 kg/m3
same,mass density,"313.15 K, 60000 kPa",1420.7 ± 1.8 kg/m3
same,mass density,"313.15 K, 80000 kPa",1431.6 ± 2 kg/m3
same,mass density,"313.15 K, 100000 kPa",1441.8 ± 2.2 kg/m3
same,mass density,"313.15 K, 120000 kPa",1451.8 ± 2.5 kg/m3
same,mass density,"333.15 K, 100 kPa",1364 ± 1.4 kg/m3
same,mass density,"333.15 K, 1000 kPa",1364.7 ± 1.4 kg/m3
same,mass density,"333.15 K, 10000 kPa",1371.6 ± 1.4 kg/m3
same,mass density,"333.15 K, 20000 kPa",1379 ± 1.5 kg/m3
same,mass density,"333.15 K, 40000 kPa",1392.6 ± 1.6 kg/m3
same,mass density,"333.15 K, 60000 kPa",1405.2 ± 1.7 kg/m3
same,mass density,"333.15 K, 80000 kPa",1416.6 ± 2 kg/m3
same,mass density,"333.15 K, 100000 kPa",1427.4 ± 2.2 kg/m3
same,mass density,"333.15 K, 120000 kPa",1437.6 ± 2.5 kg/m3
same,mass density,"348.15 K, 100 kPa",1351.1 ± 1.4 kg/m3
same,mass density,"348.15 K, 1000 kPa",1351.8 ± 1.4 kg/m3
same,mass density,"348.15 K, 10000 kPa",1359.1 ± 1.4 kg/m3
same,mass density,"348.15 K, 20000 kPa",1366.9 ± 1.5 kg/m3
same,mass density,"348.15 K, 40000 kPa",1381.1 ± 1.6 kg/m3
same,mass density,"348.15 K, 60000 kPa",1394 ± 1.7 kg/m3
same,mass density,"348.15 K, 80000 kPa",1405.9 ± 1.9 kg/m3
same,mass density,"348.15 K, 100000 kPa",1416.9 ± 2.2 kg/m3
same,mass density,"348.15 K, 120000 kPa",1427.5 ± 2.4 kg/m3
same,mass density,"373.15 K, 100 kPa",1330.5 ± 10 kg/m3
same,mass density,"373.15 K, 1000 kPa",1330.8 ± 10 kg/m3
same,mass density,"373.15 K, 10000 kPa",1338.6 ± 10 kg/m3
same,mass density,"373.15 K, 20000 kPa",1347 ± 10 kg/m3
same,mass density,"373.15 K, 40000 kPa",1362.2 ± 10 kg/m3
same,mass density,"373.15 K, 60000 kPa",1375.9 ± 10 kg/m3
same,mass density,"373.15 K, 80000 kPa",1388.3 ± 10 kg/m3
same,mass density,"373.15 K, 100000 kPa",1399.9 ± 10 kg/m3
same,mass density,"373.15 K, 120000 kPa",1410.9 ± 10 kg/m3
same,mass density,"398.15 K, 100 kPa",1307.8 ± 10 kg/m3
same,mass density,"398.15 K, 1000 kPa",1308.7 ± 10 kg/m3
same,mass density,"398.15 K, 10000 kPa",1316.4 ± 10 kg/m3
same,mass density,"398.15 K, 20000 kPa",1325.3 ± 10 kg/m3
same,mass density,"398.15 K, 40000 kPa",1341.7 ± 10 kg/m3
same,mass density,"398.15 K, 60000 kPa",1356.3 ± 10 kg/m3
same,mass density,"398.15 K, 80000 kPa",1369.7 ± 10 kg/m3
same,mass density,"398.15 K, 100000 kPa",1382 ± 10 kg/m3
same,mass density,"398.15 K, 120000 kPa",1393.5 ± 10 kg/m3
